Source: ChEMBL document CHEMBL1140614, “In silico and in vitro filters for the fast estimation of skin permeation and distribution of new chemical entities” (J Med Chem, 2007)

Experiments:
Zone of skin = conditions: human
physchem = conditions: octanol/water
[1] = PAMPA, 7 h
[2] = octanol/water

Row | Compound | log Kp (Zone of skin) | logP (physchem) | also measured
1 | CCc1ccc(O)cc1 | -5.01 | 2.47 | 
2 | Nc1cc([N+](=O)[O-])ccc1O [2-AMINO-4-NITROPHENOL] | -6.62 |  | 
3 | O=C(O)CCCCc1ccccc1 [5-PHENYLVALERIC ACID] |  | 2.85 | 
4 | Cc1cc(=O)n(-c2ccccc2)n1C [ANTIPYRINE] | -7.74 |  | 
5 | CCNc1nc(Cl)nc(NC(C)C)n1 [ATRAZINE] | -5.56 |  | 
6 | O=C(O)c1ccccc1 [BENZOIC ACID] | -5.08 |  | 
7 | O=C(OCc1ccccc1)c1cccnc1 [BENZYL NICOTINATE] | -5.35 |  | 
8 | C[C@H]1C[C@H]2[C@@H]3CCC4=CC(=O)C=C[C@]4(C)[C@@]3(F)[C@@H](O)C[C@]2(C)[C@@]1(O)C(=O)CO [BETAMETHASONE] |  | 2.01 | 
9 | Oc1ccc2ccccc2c1 [BETANAPHTHOL] | -5.11 |  | log Pe [1]: -4.19
10 | Cn1c(=O)c2c(ncn2C)n(C)c1=O [CAFFEINE] | -7.56 |  | log Pe [1]: -5.63
11 | O=C(O)Cc1ccccc1Nc1c(Cl)cccc1Cl [DICLOFENAC] | -5.3 |  | 
12 | C/C=C(/C(=C/C)c1ccc(O)cc1)c1ccc(O)cc1 [DIENESTROL] |  | 4.5 | 
13 | CN[C@@H](C)[C@H](O)c1ccccc1 [EPHEDRINE] | -5.75 |  | 
14 | CC(C(=O)O)c1ccc(-c2ccccc2)c(F)c1 (centres undefined) [FLURBIPROFEN] |  | 3.99 | 
15 | COc1ccc2c(c1)c(CC(=O)O)c(C)n2C(=O)c1ccc(Cl)cc1 [INDOMETHACIN] | -5.39 |  | logP [2]: 4.27
16 | c1ccc2cnccc2c1 [ISOQUINOLINE] | -5.33 |  | 
17 | CC(C(=O)O)c1cccc(C(=O)c2ccccc2)c1 (centres undefined) [KETOPROFEN] | -4.7 |  | 

Row | Compound | log Kp (Zone of skin) | logP (physchem) | also measured
18 | COC(=O)c1cccnc1 [METHYL NICOTINATE] | -6.04 | 0.87 | 
19 | CN1CCC[C@H]1c1cccnc1 [NICOTINE] | -5.26 |  | log Pe [1]: -4.58
20 | Cc1ccccc1O [ORTHOCRESOL] | -5.36 | 1.94 | 
21 | O=[N+]([O-])c1ccc(O)cc1 [P-NITROPHENOL] | -5.81 |  | 
22 | Oc1ccc(Cl)cc1 [PARACHLOROPHENOL] | -5 |  | 
23 | CCC1(c2ccccc2)C(=O)NC(=O)NC1=O [PHENOBARBITAL] | -6.9 |  | 
24 | Oc1ccccc1 [PHENOL] | -5.64 |  | log Pe [1]: -4.14
25 | CN1C(C(=O)Nc2ccccn2)=C(O)c2ccccc2S1(=O)=O [PIROXICAM] | -6.02 |  | 
26 | CC(=O)[C@H]1CC[C@H]2[C@@H]3CCC4=CC(=O)CC[C@]4(C)[C@H]3CC[C@]12C [PROGESTERONE] | -5.08 |  | log Pe [1]: -4.56
27 | CC(C)NCC(O)COc1cccc2ccccc12 (centres undefined) [PROPRANOLOL] |  |  | log Pe [1]: -4.25
28 | c1ccncc1 [PYRIDINE] |  |  | log Pe [1]: -4.35
29 | O=C(O)c1ccccc1O [SALYCILIC ACID] |  |  | log Pe [1]: -4.16
30 | C[C@]12CCC(=O)C=C1CC[C@@H]1[C@@H]2CC[C@@]2(C)[C@H]1CC[C@@]21CCC(=O)O1 [SPRIOLACTONE] |  | 2.26 | 
31 | Nc1ccc(S(=O)(=O)NC(=O)c2ccccc2)cc1 [SULFABENZAMIDE] |  | 1.46 | 
32 | NC(=O)NS(=O)(=O)c1ccc(N)cc1 [SULFACARBAMIDE] |  | -1.1 | 
33 | Nc1ccc(S(=O)(=O)Nc2ncccn2)cc1 [SULFADIAZINE] |  | -0.12 | log Pe [1]: -6.2
34 | Cc1ccc(C(C)C)c(O)c1 [THYMOL] | -4.83 |  | 
